Holding throughout (format): cell-based
In experiment [1] the target is vanilloid receptor 1 (VR1/TRPV1) (Rattus norvegicus (Rat), UniProt O35433). The experiment in a line: FLIPR Ca2+ influx assay on rat dorsal root ganglia cells, capsaicin stimulus (Pharmacological Method I). The source says:
I. Functional Investigation on the Vanilloid Receptor 1 (VR1/TRPV1 Receptor)
The agonistic or antagonistic action of the substances to be investigated on the vanilloid receptor 1 (VR1/TRPV1) of the species rat can be determined using the following assay. According to this assay, the Ca^2+ influx through the receptor channel is quantified with the aid of a Ca^2+-sensitive dye (Type Fluo-4, Molecular Probes Europe BV, Leiden Netherlands) in a fluorescent imaging plate reader (FLIPR, Molecular Devices, Sunnyvale, USA).
Complete medium: 50 mL of HAMS F12 Nutrient Mixture (Gibco Invitrogen GmbH, Karlsruhe, Germany) with
10% by volume of FCS (fetal calf serum, Gibco Invitrogen GmbH, Karlsruhe, Germany, heat-inactivated);
2 mM of L-glutamine (Sigma, Munich, Germany);
1% by weight of AA solution (antibiotics/antimycotics solution, PAA, Pasching, Austria)
and 25 ng/mL of Medium NGF (2.5 S, Gibco Invitrogen GmbH, Karlsruhe, Germany) Cell culture plate: Poly-D-lysine-coated, black 96-well plates with a clear bottom (96-well black/clear plate, BD Biosciences, Heidelberg, Germany) are additionally coated with laminin (Gibco Invitrogen GmbH, Karlsruhe, Germany) by diluting laminin to a concentration of 100 μg/mL with PBS (Ca—Mg-free PBS, Gibco Invitrogen GmbH, Karlsruhe, Germany). Aliquots having a concentration of 100 μg/mL of laminin are taken and stored at −20° C. The aliquots are diluted with PBS in the ratio 1:10 to 10 μg/mL of laminin and in each case 50 μL of the solution is pipeted into a well of the cell culture plate. The cell culture plates are incubated at 37° C. for at least two hours, the supernatant solution is aspirated and the wells are in each case washed twice with PBS. The coated cell culture plates are stored with supernatant PBS and this is removed only directly before the addition of the cells.
Preparation of the Cells:
The vertebral column is removed from decapitated rats and this is laid directly in a cold, i.e. ice bath-surrounded, HBSS buffer (Hank's buffered saline solution, Gibco Invitrogen GmbH, Karlsruhe, Germany) and 1% by volume of an AA solution (antibiotics/antimycotics solution, PAA, Pasching, Austria) is added. The vertebral column is cut in two, longitudinally, and the vertebral canal is removed together with fascias. Subsequently, the dorsal root ganglia (DRGs) are removed and in turn stored in cold HBSS buffer to which 1% by volume of an AA solution has been added. The DRGs completely freed from blood residues and spinal nerves are in each case transferred to 500 μL of cold collagenase Type 2 (PAA, Pasching, Austria) and incubated at 37° C. for 35 minutes. After the addition of 2.5% by volume of trypsin (PAA, Pasching, Austria), the preparation is incubated at 37° C. for a further 10 minutes. On completion of incubation, the enzyme solution is carefully pipeted off and 500 μL of complete medium are added to the DRGs in each case. The DRGs are in each case repeatedly suspended, drawn through No. 1, No. 12, and No. 16 needles by means of a syringe and transferred to 50 mL Falcon tubes and these are filled to 15 mL with complete medium. The contents of each Falcon tube are in each case filtered through a 70 μm Falcon filter insert and centrifuged at 1200 rpm and RT for 10 minutes. The resulting pellet is in each case taken up in 250 μL of complete medium and the cell count is determined.
The number of cells in the suspension is adjusted to 3×10^5 per mL and in each case 150 μL of this suspension are added to a well of the cell culture plates coated as described above. The plates are allowed to stand at 37° C., 5% by volume of CO2 and 95% relative humidity for two to three days in an incubator. […]

In another experiment the target is vanilloid receptor (VR1) (Homo sapiens (Human), UniProt Q8NER1). As to the kind of experiment: FLIPR Ca2+ influx assay on CHO-K1 cells transfected with the human VR1 gene, capsaicin stimulus (Pharmacological Method II). The protocol:
Furthermore, preference may be given to compounds of the invention of the general formulas I, Ia, Ib and Ic, which in the FLIPR assay using CHO—K1 cells, which have been transfected with the human VR1 gene in a concentration below 2000 nM, preferably below 1000 nM, more preferably below 300 nM, even more preferably below 100 nM, still more preferably below 75 nM, very preferably below 50 nM and most preferably below 10 nM, cause a 50 percent displacement of capsaicin present in a concentration of 100 nM. In the FLIPR assay, the Ca^2+ influx is quantified with the aid of a Ca^2+-sensitive dye (type Fluo-4, Molecular Probes Europe BV, Leiden, Netherlands) in a fluorescent imaging plate reader (FLIPR, Molecular Devices, Sunnyvale, USA), as described below.
II. Functional Investigations on the Vanilloid Receptor (VR1)
The agonistic or antagonistic action of the substances to be examined on the vanilloid receptor (VR1) can alternatively be determined by the following assay. According to this assay the Ca^2+ influx through the canal is quantified with the aid of a Ca^2+-sensitive dye (type Fluo-4, Molecular Probes, Europe BV, Leiden, Netherlands) in a fluorescent imaging plate reader (FLIPR, Molecular Devices, Sunnyvale, USA).
Chinese hamster ovary cells (CHO—K1 cells, European Collection of Cell Cultures (ECACC) UK) are stably transfected with the VR1 gene. For carrying out functional investigations, these cells are plated on poly-D-lysine-coated, black 96-well plates with a clear bottom (BD Biosciences, Heidelberg, Germany) in a density of 25,000 cells/well. The cells are incubated overnight at 37° C. and 5% CO2 in a culture medium (Nutrient Mixture ‘am’s F12, 10% by volume of FCS (fetal calf serum), 18 μg/mL of L-proline). On the following day the cells are incubated with Fluo-4 (Fluo-4 2 μM, Pluronic F127 0.01 by volume, Molecular Probes in HBSS (Hank's buffered saline solution), Gibco Invitrogen GmbH, Karlsruhe, Germany) for 30 minutes at 37° C. The plates are then washed 3 times with HBSS buffer and, after another incubation over a period of 15 minutes at RT, are used in the FLIPR for Ca^2+ measurement. The Ca^2+-dependent fluorescence is measured prior to and following the addition of the substances being examined (wavelength λex=488 nm, λem=540 nm). Quantification is carried out by measuring the highest fluorescence intensity (PC, fluorescence counts) over time.
The FLIPR protocol consists of two substance additions. First of all, the substances to be tested (10 μM) are pipeted onto the cells and the Ca^2+ influx is compared with the control (capsaicin 10 μM) (percentage activation based on the Ca^2+ signal following addition of 10 μM of capsaicin). Following incubation over a period of 5 minutes 100 nM of capsaicin are applied and the influx of Ca^2+ is likewise determined.
Desensitizing agonists and antagonists lead to a suppression of the Ca^2+ influx. The percentage inhibition compared with the maximum inhibition achieved with 10 μM of capsaicin is calculated.
Based on the percentage displacement effected by different concentrations of the compounds of the general formula Ito be tested, IC50 inhibition concentrations that cause 50 percent displacement of capsaicin are calculated. Conversion using the Cheng Prusoff equation gave Ki values for the test substances (Cheng, Prusoff; Bioch. Pharmacol. 22, 3099-3108, 1973).
The affinity of the compounds of the invention for the vanilloid receptor 1 (VR1/TRPV1-Receptor) was detected as described above (Pharmacological Methods I and II respectively).

A further experiment has as its target VR1/TRPV1 receptor (Homo sapiens (Human), UniProt Q8NER1). As to the kind of experiment: Inhibition of human VR1/TRPV1 following pH-stimulus. The note with it: ne = no effect, no reaction observed.

Sequence of VR1/TRPV1 receptor (Q8NER1 whole entry): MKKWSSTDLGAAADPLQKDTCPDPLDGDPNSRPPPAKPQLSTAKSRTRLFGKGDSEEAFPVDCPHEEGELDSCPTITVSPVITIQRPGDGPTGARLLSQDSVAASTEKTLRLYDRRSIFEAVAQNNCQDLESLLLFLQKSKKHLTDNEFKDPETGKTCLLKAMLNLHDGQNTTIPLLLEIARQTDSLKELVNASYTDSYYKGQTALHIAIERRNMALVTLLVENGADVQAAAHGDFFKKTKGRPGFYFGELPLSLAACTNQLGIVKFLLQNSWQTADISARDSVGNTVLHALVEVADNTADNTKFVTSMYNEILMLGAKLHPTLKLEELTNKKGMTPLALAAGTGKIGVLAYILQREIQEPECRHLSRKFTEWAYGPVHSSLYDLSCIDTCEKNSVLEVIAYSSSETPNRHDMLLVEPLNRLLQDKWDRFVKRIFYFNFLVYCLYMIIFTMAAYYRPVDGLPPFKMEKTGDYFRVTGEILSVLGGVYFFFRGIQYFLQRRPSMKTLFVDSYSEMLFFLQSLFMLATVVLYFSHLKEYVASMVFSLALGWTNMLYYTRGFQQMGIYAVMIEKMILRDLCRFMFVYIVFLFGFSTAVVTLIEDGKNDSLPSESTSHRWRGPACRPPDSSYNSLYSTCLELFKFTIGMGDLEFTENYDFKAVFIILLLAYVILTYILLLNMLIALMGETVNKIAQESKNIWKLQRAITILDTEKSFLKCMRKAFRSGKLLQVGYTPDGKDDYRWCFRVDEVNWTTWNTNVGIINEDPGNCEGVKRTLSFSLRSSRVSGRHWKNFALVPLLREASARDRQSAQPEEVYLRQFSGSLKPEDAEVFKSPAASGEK
Sequence of vanilloid receptor (VR1) (Q8NER1 whole entry): as above
Sequence of vanilloid receptor 1 (VR1/TRPV1) (O35433 whole entry): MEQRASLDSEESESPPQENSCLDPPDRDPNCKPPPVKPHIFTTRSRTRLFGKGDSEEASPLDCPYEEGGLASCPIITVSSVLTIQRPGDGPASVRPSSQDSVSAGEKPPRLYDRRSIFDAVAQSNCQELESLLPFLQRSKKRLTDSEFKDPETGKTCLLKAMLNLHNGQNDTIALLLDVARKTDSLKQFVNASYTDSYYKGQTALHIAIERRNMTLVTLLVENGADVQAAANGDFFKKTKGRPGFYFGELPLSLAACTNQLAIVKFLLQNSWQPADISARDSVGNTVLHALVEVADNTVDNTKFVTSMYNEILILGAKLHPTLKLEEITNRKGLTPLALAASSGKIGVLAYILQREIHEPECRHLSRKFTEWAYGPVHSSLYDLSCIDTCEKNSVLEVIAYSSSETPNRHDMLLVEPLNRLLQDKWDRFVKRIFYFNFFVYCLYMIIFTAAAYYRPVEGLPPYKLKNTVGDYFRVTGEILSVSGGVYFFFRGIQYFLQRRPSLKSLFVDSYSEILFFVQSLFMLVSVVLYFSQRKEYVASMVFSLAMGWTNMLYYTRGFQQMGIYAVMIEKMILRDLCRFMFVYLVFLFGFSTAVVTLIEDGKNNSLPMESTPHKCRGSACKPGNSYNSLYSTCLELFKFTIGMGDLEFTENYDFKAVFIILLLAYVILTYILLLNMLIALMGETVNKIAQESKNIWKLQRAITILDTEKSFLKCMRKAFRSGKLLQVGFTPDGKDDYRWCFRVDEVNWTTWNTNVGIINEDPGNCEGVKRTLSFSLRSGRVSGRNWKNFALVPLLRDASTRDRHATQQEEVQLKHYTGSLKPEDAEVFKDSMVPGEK

In the case of `CC1CCN(c2nc(C(F)(F)F)ccc2CNC(=O)Cc2c(F)cccc2F)CC1` [Example 6, 2-(2,6-Difluorophenyl)-N-(4-methyl-6′-trifluoromethyl-3,4,5,6-tetrahydro-2H-[1,2′]bipyridinyl-3′-ylmethyl)acetamide], the Ki was found to be 0.118 µM in experiment [1] and 0.038 µM at vanilloid receptor (VR1). The “IC50 (Human) following pH-stimulus” value at VR1/TRPV1 receptor is reported as “ne”.

Take `CC1CCN(c2nc(C(F)(F)F)ccc2CNC(=O)C(C)c2cc(F)c(N)c(F)c2)CC1` (stereo not drawn) [Example 26, 2-(4-Amino-3,5-difluorophenyl)-N-((2-(4-methylpiperidin-1-yl)-6-(trifluoromethyl)pyridin-3-yl)methyl)propanamide]: the Ki in experiment [1] was found to be 0.0034 µM; at vanilloid receptor (VR1), 0.0096 µM. In addition, the “IC50 (Human) following pH-stimulus” value against VR1/TRPV1 receptor is recorded as “ne”.

`COc1cc(CC(=O)NCc2ccc(C(F)(F)F)nc2N2CCC(C)CC2)cc(Br)c1N` [Example 3, 2-(4-Amino-3-bromo-5-methoxyphenyl)-N-(4-methyl-6′-trifluoromethyl-3,4,5,6-tetrahydro-2H-[1,2′]bipyridinyl-3′-ylmethyl)acetamide]: the inhibition constant (Ki) in experiment [1] is 0.0167 µM; at vanilloid receptor (VR1), 0.0044 µM. Further, the IC50 against VR1/TRPV1 receptor was found to be 0.253 µM.

Source of the values: patent publication US8791268B2, “Vanilloid receptor ligands, pharmaceutical compositions containing them, process for making them, and use thereof for treating pain and other conditions” (Gruenenthal GmbH, priority 2007, dated 2014).
